Test [1] has as its target Dual specificity mitogen-activated protein kinase kinase 2 (Homo sapiens, UniProt P36507). The test is described as follows: MEK 1/2 inhibition.
The target in test [2] is Dual specificity mitogen-activated protein kinase kinase 1 (Homo sapiens, UniProt Q02750). The test is described as follows: MEK 1/2 inhibition.

From BindingDB's records for patent US11147816 (Genuv, 2021) come the findings set out here.

Sequence of Dual specificity mitogen-activated protein kinase kinase 1 (Q02750 whole entry): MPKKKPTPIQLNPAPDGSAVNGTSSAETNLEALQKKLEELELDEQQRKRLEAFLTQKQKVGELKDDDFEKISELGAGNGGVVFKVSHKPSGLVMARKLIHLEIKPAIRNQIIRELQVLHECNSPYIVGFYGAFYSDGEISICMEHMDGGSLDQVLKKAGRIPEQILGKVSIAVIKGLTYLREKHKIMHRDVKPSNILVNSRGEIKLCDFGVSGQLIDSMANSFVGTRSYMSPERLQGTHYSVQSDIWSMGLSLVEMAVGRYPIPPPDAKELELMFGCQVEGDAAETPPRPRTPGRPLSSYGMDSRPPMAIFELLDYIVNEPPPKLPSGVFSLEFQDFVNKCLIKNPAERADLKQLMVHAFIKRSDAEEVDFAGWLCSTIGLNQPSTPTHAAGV
Sequence of Dual specificity mitogen-activated protein kinase kinase 2 (P36507 whole entry): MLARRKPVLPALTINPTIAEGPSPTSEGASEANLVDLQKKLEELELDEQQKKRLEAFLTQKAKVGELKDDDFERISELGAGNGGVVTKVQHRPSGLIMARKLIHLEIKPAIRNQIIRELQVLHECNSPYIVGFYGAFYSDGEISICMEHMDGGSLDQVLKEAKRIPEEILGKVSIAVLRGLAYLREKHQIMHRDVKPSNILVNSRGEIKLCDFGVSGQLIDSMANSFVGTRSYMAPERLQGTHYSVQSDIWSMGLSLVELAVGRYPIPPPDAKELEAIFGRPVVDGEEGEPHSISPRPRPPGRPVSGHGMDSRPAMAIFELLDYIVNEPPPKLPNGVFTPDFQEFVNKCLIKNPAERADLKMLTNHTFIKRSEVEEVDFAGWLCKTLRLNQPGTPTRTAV

What is called IC50 is the concentration needed to halve the response being measured. Lower therefore signals greater potency in that assay. As to `COc1cc(F)c(F)c(Nc2ccc(I)cc2F)c1NS(=O)(=O)C1(C[C@H](O)CO)CC1` [US11147816, Refametinib (RDEA119, Bay], the midpoint of inhibition in test [1], the IC50, lay at 47 nM. In the case of `O=C(NOC[C@@H](O)CO)c1cc(Br)c(F)c(F)c1Nc1ccc(I)cc1F` [US11147816, PD318088], in test [2], the IC50 worked out at 1.4 nM.
